From patent publication US20230201212A1, “INHIBITORS OF EZH2 AND METHODS OF USE THEREOF” (Epizyme, Inc., priority 2017, published 2023)

How the values were obtained:
[1] = system: relapsed or refractory diffuse large B-cell lymphoma (DLBCL) or follicular lymphoma (FL); assay: phase 2 study (NCT01897571): objective response to tazemetostat by NGS molecular profile of archive tumor; type: in vivo, human
Protocol: […]. […] The primary study endpoint is objective overall response rate.
During screening, archive tumor- and/or plasma-derived circulating tumor DNA (ctDNA) samples were obtained. Archive tumor was analyzed prospectively for EZH2-activating mutations Y646F, Y646N, Y646X (Y646H, Y646C, and Y646S), A682G, and A692V using a cobas® EZH2 Mutation Test (Roche Molecular Systems, Inc., Pleasanton, CA, USA). Next generation sequencing (NGS) was performed retrospectively on DNA derived from archive tumor and plasma samples to identify somatic mutations, amplifications, and translocations using an NHL-specific 62-gene panel on the Illumina HiSeq 2500 platform (Illumina, Inc., San Diego, CA, USA) with 100 bp paired-end reads (Table 1).
ctDNA was approximately 20,000 X for mutations and 3700 X for structural alterations. Sequencing data were aligned to the human reference sequence (hg19) and analyzed using validated cancer genome analysis algorithms (Personal Genome Diagnostics, Baltimore, MD, USA). EZH2 mutation detection rates in archive tumor were ~12% in DLBCL and 19% in FL in the total phase 2 cohort (Table 2), consistent with previous reports.

oral bioavailability = details: in vivo
[2] = system: advanced solid tumors or B-cell lymphomas; assay: phase 1 part of phase 1/2 study (NCT01897571), tazemetostat monotherapy
[3] = Genetic Profile 1, patients matching profile (19)
[4] = Genetic Profile 1, patients not matching profile (73)
[5] = Genetic Profile 2, patients matching profile (26)
[6] = Genetic Profile 2, patients not matching profile (66)

In the case of `CCN(c1cc(-c2ccc(CN3CCOCC3)cc2)cc(C(=O)NCc2c(C)cc(C)[nH]c2=O)c1C)C1CCOCC1` [tazemetostat], the “Nonresponder (SD/PF/UK), %” value [1, 3] is reported as 42.1%, the “Responder (CR/PR), %” value [1, 3] is reported as 57.9% and the “Nonresponder (SD/PF/UK), %” value [1, 4] is reported as 80.8%. For the same compound, the “Responder (CR/PR), %” value [1, 4] was 19.2%, the “Nonresponder (SD/PD/UK), %” value [1, 5] was 42.3% and the “Responder (CR/PR), %” value [1, 5] was 57.7%. For the same compound, the “Nonresponder (SD/PD/UK), %” value [1, 6] was 84.8%, the “Responder (CR/PR), %” value [1, 6] was 15.2% and the Response preference ([1]; gene EZH2, P-value 0.0253) was “Mutant”. The Response preference ([1]; gene MYD88 L273P, P-value 0.0841) was “Mutant”, the Response preference ([1]; gene STAT6, P-value 0.0753) was “Mutant” and the “objective overall response rate” value ([1]; patients matching multigene predictor: wild-type MYC and/or HIST1H1E with mutated STAT6 and/or MYD88 in archive tumor (11/19)) was ~ 58%. The “objective overall response rate” value ([1]; patients not matching the multigene predictor (14/73)) was roughly 19%, the oral bioavailability (oral bioavailability) was “orally bioavailable” and the “safety profile as monotherapy” value ([2]; monotherapy, patients) was “acceptable”. For the same compound, the objective responses ([2]; phase 1, adult patients, tumors exhibiting mutated or wild-type EZH2) was “objective responses to tazemetostat were observed”.
